Data: US12077503B2, “Substituted cyclic amides and their use as herbicides” (FMC CORPORATION, priority 2015, dated 2024)

Assays:
Format in all cases: in vivo
[1] = system: sedge, umbrella (small-flower umbrella sedge, Cyperus difformis); assay: Test B flooded paddy test; details: Cyperus difformis, 250 g ai/ha, Flood; 0 to 100 scale where 0 is no effect and 100 is complete control; read-out: Sedge, Umbrella plant response rating
Summary of the method: (§1)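 Percent control, visually estimated after 13–15 d in the greenhouse on a 0–100 basis, compares treated pots with untreated ones; compound was put into paddy water 3 cm above the soil when plants had two leaves.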

[2] = system: rice (Oryra sativa); assay: Test B flooded paddy test; details: Oryza sativa, 250 g ai/ha, Flood; 0 to 100 scale where 0 is no effect and 100 is complete control; read-out: Rice plant response rating
Summary of the method: as §1

[3] = system: barnyardgrass (Echinochloa crus-galli); assay: Test B flooded paddy test; details: Echinochloa crus-galli, 250 g ai/ha, Flood; 0 to 100 scale where 0 is no effect and 100 is complete control; read-out: Barnyardgrass plant response rating
Summary of the method: as §1

[4] = system: ducksalad (Heteranthera limosa); assay: Test B flooded paddy test; details: Heteranthera limosa, 250 g ai/ha, Flood; 0 to 100 scale where 0 is no effect and 100 is complete control; read-out: Ducksalad plant response rating
Summary of the method: as §1

[5] = system: pigweed (Amaranthus retroflexus); assay: Test A postemergence; details: Amaranthus retroflexus, post-emergence, 240 h; for pest or weed control at 125 g/ha: 125 g ai/ha, postemergence, visual injury vs untreated controls after approx. 10 d, 0 = no effect, 100 = complete control, read-out: Pigweed plant response rating (0 to 100 scale); for pest or weed control at 500 g/ha: Postemergence, 500 g ai/ha, visual injury, 0 to 100 scale (0 no effect, 100 complete control), approx. 10 d, read-out: Plant response rating, Pigweed
Summary of the method: (§2)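 Treatment is preemergence as a directed soil spray after planting, or postemergence at the one- to two-leaf stage, with test chemical in a non-phytotoxic solvent mixture plus surfactant. Plants stay in the greenhouse about 10 d before visual injury scoring on a 0 to 100 scale versus untreated controls.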

[6] = system: Galium (catchweed bedstraw, Galium aparine); assay: Test A postemergence; details: Galium, post-emergence, 240 h; for pest or weed control at 125 g/ha: 125 g ai/ha, postemergence, visual injury vs untreated controls after approx. 10 d, 0 = no effect, 100 = complete control, read-out: Galium plant response rating (0 to 100 scale); for pest or weed control at 500 g/ha: Postemergence, 500 g ai/ha, visual injury, 0 to 100 scale (0 no effect, 100 complete control), approx. 10 d, read-out: Plant response rating, Galium
Summary of the method: as §2

[7] = system: ragweed (common ragweed, Ambrosia elatior); assay: Test A postemergence; details: Ambrosia artemisiifolia, post-emergence, 240 h; for pest or weed control at 125 g/ha: 125 g ai/ha, postemergence, visual injury vs untreated controls after approx. 10 d, 0 = no effect, 100 = complete control, read-out: Ragweed plant response rating (0 to 100 scale); for pest or weed control at 500 g/ha: Postemergence, 500 g ai/ha, visual injury, 0 to 100 scale (0 no effect, 100 complete control), approx. 10 d, read-out: Plant response rating, Ragweed
Summary of the method: as §2

[8] = system: Kochia (Kochia scoparia); assay: Test A postemergence; details: Bassia scoparia, post-emergence, 240 h; for pest or weed control at 125 g/ha: 125 g ai/ha, postemergence, visual injury vs untreated controls after approx. 10 d, 0 = no effect, 100 = complete control, read-out: Kochia plant response rating (0 to 100 scale); for pest or weed control at 500 g/ha: Postemergence, 500 g ai/ha, visual injury, 0 to 100 scale (0 no effect, 100 complete control), approx. 10 d, read-out: Plant response rating, Kochia
Summary of the method: as §2

[9] = system: wheat (Triticum aestivum); assay: Test A postemergence; details: Triticum aestivum, post-emergence, 240 h; for plant injury at 125 g/ha: 125 g ai/ha, postemergence, visual injury vs untreated controls after approx. 10 d, 0 = no effect, 100 = complete control, read-out: Wheat plant response rating (0 to 100 scale); for plant injury at 500 g/ha: Postemergence, 500 g ai/ha, visual injury, 0 to 100 scale (0 no effect, 100 complete control), approx. 10 d, read-out: Plant response rating, Wheat
Summary of the method: as §2

[10] = system: ryegrass, Italian (Italian ryegrass, Lolium multiflorum); assay: Test A postemergence; details: Lolium multiflorum, post-emergence, 240 h; for pest or weed control at 125 g/ha: 125 g ai/ha, postemergence, visual injury vs untreated controls after approx. 10 d, 0 = no effect, 100 = complete control, read-out: Ryegrass, Italian plant response rating (0 to 100 scale); for pest or weed control at 500 g/ha: Postemergence, 500 g ai/ha, visual injury, 0 to 100 scale (0 no effect, 100 complete control), approx. 10 d, read-out: Plant response rating, Ryegrass, Italian
Summary of the method: as §2

[11] = system: barnyardgrass (Echinochloa crus-galli); assay: Test A postemergence; details: Echinochloa crus-galli, post-emergence, 240 h; for pest or weed control at 125 g/ha: 125 g ai/ha, postemergence, visual injury vs untreated controls after approx. 10 d, 0 = no effect, 100 = complete control, read-out: Barnyardgrass plant response rating (0 to 100 scale); for pest or weed control at 500 g/ha: Postemergence, 500 g ai/ha, visual injury, 0 to 100 scale (0 no effect, 100 complete control), approx. 10 d, read-out: Plant response rating, Barnyardgrass
Summary of the method: as §2

[12] = system: blackgrass (Alopecurus myosuroides); assay: Test A postemergence; details: Alopecurus myosuroides, post-emergence, 240 h; for pest or weed control at 125 g/ha: 125 g ai/ha, postemergence, visual injury vs untreated controls after approx. 10 d, 0 = no effect, 100 = complete control, read-out: Blackgrass plant response rating (0 to 100 scale); for pest or weed control at 500 g/ha: Postemergence, 500 g ai/ha, visual injury, 0 to 100 scale (0 no effect, 100 complete control), approx. 10 d, read-out: Plant response rating, Blackgrass
Summary of the method: as §2

[13] = system: giant foxtail (Setaria faberii); assay: Test A postemergence; details: Setaria faberi, post-emergence, 240 h; for pest or weed control at 125 g/ha: 125 g ai/ha, postemergence, visual injury vs untreated controls after approx. 10 d, 0 = no effect, 100 = complete control, read-out: Foxtail, Giant plant response rating (0 to 100 scale); for pest or weed control at 500 g/ha: Postemergence, 500 g ai/ha, visual injury, 0 to 100 scale (0 no effect, 100 complete control), approx. 10 d, read-out: Plant response rating, Foxtail, Giant
Summary of the method: as §2

[14] = system: corn (Zea mays); assay: Test A postemergence; details: Zea mays, post-emergence, 240 h; for plant injury at 125 g/ha: 125 g ai/ha, postemergence, visual injury vs untreated controls after approx. 10 d, 0 = no effect, 100 = complete control, read-out: Corn plant response rating (0 to 100 scale); for Corn plant response rating (crop injury, 0 = no effect, 100 = complete kill) at 500 g/ha: Postemergence, 500 g ai/ha, visual injury, 0 to 100 scale (0 no effect, 100 complete control), approx. 10 d
Summary of the method: as §2

SMILES	pest or weed control at 250 g/ha [1] [%]	pest or weed control at 250 g/ha [2] [%]	pest or weed control at 250 g/ha [3] [%]	pest or weed control at 250 g/ha [4] [%]	pest or weed control at 125 g/ha [5] [%]	pest or weed control at 500 g/ha [5] [%]	pest or weed control at 125 g/ha [6] [%]	pest or weed control at 500 g/ha [6] [%]	pest or weed control at 125 g/ha [7] [%]	pest or weed control at 500 g/ha [7] [%]	pest or weed control at 125 g/ha [8] [%]	pest or weed control at 500 g/ha [8] [%]	plant injury at 500 g/ha [9] [%]	pest or weed control at 125 g/ha [10] [%]	pest or weed control at 500 g/ha [10] [%]	pest or weed control at 125 g/ha [11] [%]	pest or weed control at 500 g/ha [11] [%]	pest or weed control at 125 g/ha [12] [%]	pest or weed control at 500 g/ha [12] [%]	pest or weed control at 125 g/ha [13] [%]	other results
Cc1ccc([C@H]2CNC(=O)[C@@H]2C(=O)Nc2c(F)cccc2F)cc1C [Compound 1247]	0	0	20	55	0	0	0	20	0	0	0	0	0	0	0	40	70	0	0	0	plant injury at 125 g/ha [9]: 0%; pest or weed control at 500 g/ha [13]: 30%; plant injury at 125 g/ha [14]: 0%; Corn plant response rating (crop injury, 0 = no effect, 100 = complete kill) at 500 g/ha [14]: 0%
CSc1ccccc1NC(=O)[C@H]1C(=O)N(C)C[C@@H]1c1cccc(C(F)(F)F)c1 [Compound 1249]	0	0	60	100	30	80	50	50	0	60	40	70	70	30	70	100	100	40	50	80	plant injury at 125 g/ha [9]: 50%; pest or weed control at 500 g/ha [13]: 80%; plant injury at 125 g/ha [14]: 70%; Corn plant response rating (crop injury, 0 = no effect, 100 = complete kill) at 500 g/ha [14]: 90%
CSc1ccccc1NC(=O)[C@H]1C(=O)N(C)C[C@@H]1c1ccc2c(c1)OC(F)(F)O2 [Compound 1251]	0	0	0	90	70	80	50	50	0	50	50	70	60	20	40	80	100	0	40	70	plant injury at 125 g/ha [9]: 30%; pest or weed control at 500 g/ha [13]: 80%; plant injury at 125 g/ha [14]: 20%; Corn plant response rating (crop injury, 0 = no effect, 100 = complete kill) at 500 g/ha [14]: 80%
Cc1c(F)cccc1NC(=O)[C@H]1C(=O)N(C)C[C@@H]1c1ccc2c(c1)OC(F)(F)O2 [Compound 1252]	0	30	65	100	0	50	50	60	0	50	20	60	70	70	70	80	90	50	50	80	plant injury at 125 g/ha [9]: 70%; pest or weed control at 500 g/ha [13]: 80%; plant injury at 125 g/ha [14]: 80%; Corn plant response rating (crop injury, 0 = no effect, 100 = complete kill) at 500 g/ha [14]: 90%
CN1C[C@H](c2ccc(F)c(C#N)c2)[C@@H](C(=O)Nc2ccccc2F)C1=O [Compound 1254]	0	0	60	100	0	20	30	50	0	0	0	40	40	0	70	80	90	0	40	80	pest or weed control at 500 g/ha [13]: 80%; plant injury at 125 g/ha [14]: 20%; Corn plant response rating (crop injury, 0 = no effect, 100 = complete kill) at 500 g/ha [14]: 50%
